Measurements from patent publication US10294246B2, “Substituted boronic acids and boronate esters as immunoproteasome inhibitors” (MERCK PATENT GMBH, priority 2014, dated 2019).
pIC50: −log10 of the molar value.

How the values were obtained:
[1] = molecular target: human immunoproteasome (LMP7) (Homo sapiens (Human), UniProt P28062); experiment: Determination of LMP7 activity (fluorescence intensity assay, Suc-LLVY-AMC); type: biochemical; conditions: for Selectivity LMP7 vs Beta5: LMP7 versus Beta5; for pIC50: purified human immunoproteasome 0.25 nM, Suc-LLVY-AMC 40 μM
Procedure: Determination of LMP7 Activity:
Measurement of LMP7 inhibition is performed in 384 well format based on fluorescence intensity assay.
(§1) Purified human immunoproteasome (0.25 nM) and serial diluted compounds in DMSO (range of concentrations from 30 μM to […]) or controls are incubated for 20 minutes at 25° C. in assay buffer containing 50 mM Tris pH 7.4, 0.03% SDS, 1 mM EDTA and 1% DMSO. The reaction is initiated by the addition of the fluorogenic peptide substrate, Suc-LLVY-AMC (Bachem 1-1395), at a concentration of 40 μM. After 60 minutes of incubation at 37° C., fluorescence intensity is measured at λex=350 nm and λem=450 nm with a fluorescence reader (Perkin Elmer Envision reader or equivalent).

[2] = molecular target: human constitutive proteasome (Beta5) (Homo sapiens (Human), UniProt P28074); experiment: Determination of Beta5 activity (fluorescence intensity assay, Suc-LLVY-AMC); type: biochemical; conditions: purified human constitutive proteasome 1.25 nM, Suc-LLVY-AMC 40 μM
Procedure: Determination of Beta5 Activity:
Measurement of Beta5 inhibition is performed in 384 well format based on fluorescence intensity assay.
as §1, with “constitutive proteasome (1.25” for “immunoproteasome (0.25”

Row | Selectivity LMP7 vs Beta5 [1] | pIC50 [1] | pIC50 [2] | SMILES
1 | +++++ (Selectivity ≥ 100) | > 7.30 | 5.30 to 6.30 | N#Cc1ccccc1CC(=O)N[C@@H](Cc1coc2c(Cl)cccc12)B(O)O [Compound No. 116, [(1R)-2-(7-chlorobenzofuran-3-yl)-1-[[2-(2-cyanophenyl)acetyl]amino]-ethyl]boronic acid]
2 | +++++ (Selectivity ≥ 100) | > 7.30 | 5.30 to 6.30 | COc1ccc(CCC(=O)N[C@@H](Cc2coc3c(C)c(C)ccc23)B(O)O)nc1 [Compound No. 95, [(1R)-2-(6,7-dimethylbenzofuran-3-yl)-1-[3-(5-methoxy-2-pyridyl)propanoylamino]ethyl]boronic acid]
3 | +++++ (Selectivity ≥ 100) | > 7.30 | 5.30 to 6.30 | COc1ccc(CC(=O)N[C@@H](C[C@@H]2COc3c(OC)cccc32)B(O)O)cc1 [Compound No. 120, [(1R)-2-[(3S)-7-methoxy-2,3-dihydrobenzofuran-3-yl]-1-[[2-(4-methoxyphenyl)acetyl]amino]ethyl]boronic acid]
4 | +++++ (Selectivity ≥ 100) | > 7.30 | 6.30 to 7.30 | O=C(CCOc1ccccc1)N[C@@H](C[C@@H]1COc2ccccc21)B(O)O [Compound No. 136, [(1R)-2-[(3S)-2,3-dihydrobenzofuran-3-yl]-1-(3-phenoxypropanoylamino)ethyl]boronic acid]
5 | +++++ (Selectivity ≥ 100) | > 7.30 | 6.30 to 7.30 | CC(C)(O)c1ccc(CC(=O)N[C@@H](Cc2coc3ccccc23)B(O)O)cc1 [Compound No. 91, [(1R)-2-(benzofuran-3-yl)-1-[[2-[4-(1-hydroxy-1-methyl-ethyl)phenyl]acetyl]amino]ethyl]boronic acid]
6 | +++++ (Selectivity ≥ 100) | > 7.30 | 5.30 to 6.30 | COc1ccc(CC(=O)N[C@@H](Cc2coc3c(C)ccc(C)c23)B(O)O)cc1 [Compound No. 129, [(1R)-2-(4,7-dimethylbenzofuran-3-yl)-1-[[2-(4-methoxyphenyl)-acetyl]amino]ethyl]boronic acid]
7 | +++++ (Selectivity ≥ 100) | > 7.30 | 6.30 to 7.30 | O=C(Cc1ccccc1)N[C@@H](Cc1coc2c(F)cccc12)B(O)O [Compound No. 125, [(1R)-2-(7-fluorobenzofuran-3-yl)-1-[(2-phenylacetyl)amino]ethyl]-boronic acid]
8 | +++++ (Selectivity ≥ 100) | > 7.30 | 5.30 to 6.30 | O=C(Cc1ccccn1)NC(Cc1coc2ccccc12)B(O)O (centres unmarked) [Compound No. 112, [2-(benzofuran-3-yl)-1-[[2-(2-pyridyl)acetyl]amino]ethyl]boronic acid]
9 | ++ (10 ≤ Selectivity < 50) | 5.30 to 6.30 | < 5.30 | O=C(Cc1ccccc1)N[C@@H](C[C@H]1COc2c(Cl)cccc21)B(O)O [Compound No. 133, [(1R)-2-[(3R)-7-chloro-2,3-dihydrobenzofuran-3-yl]-1-[(2-phenylacetyl)amino]ethyl]boronic acid]
10 | +++++ (Selectivity ≥ 100) | > 7.30 | 5.30 to 6.30 | O=C(Cc1ccccc1)NC(Cc1coc2c(F)cccc12)B(O)O (centres unmarked) [Compound No. 121, [2-(7-fluorobenzofuran-3-yl)-1-[(2-phenylacetyl)amino]ethyl]boronic acid]
11 | +++++ (Selectivity ≥ 100) | > 7.30 | < 5.30 | C[C@H](C(=O)N[C@@H](C[C@H]1COc2ccccc21)B(O)O)c1ccccc1C(=O)N(C)C [Compound No. 106, [(1R)-2-[(3R)-2,3-dihydrobenzofuran-3-yl]-1-[[(2S)-2-[2-(dimethylcarbamoyl)phenyl]propanoyl]amino]ethyl]boronic acid]
12 | +++++ (Selectivity ≥ 100) | > 7.30 | < 5.30 | COc1ccc(CC(=O)N[C@@H](C[C@H]2COc3ccccc32)B(O)O)cc1 [Compound No. 115, [(1R)-2-[(3R)-2,3-dihydrobenzofuran-3-yl]-1-[[2-(4-methoxyphenyl)-acetyl]amino]ethyl]boronic acid]
13 | +++++ (Selectivity ≥ 100) | > 7.30 | < 5.30 | COc1ccc(CC(=O)N[C@@H](C[C@@H]2COc3c(C)cccc32)B(O)O)cc1 [Compound No. 89, [(1R)-1-[[2-(4-methoxyphenyl)acetyl]amino]-2-[(3S)-7-methyl-2,3-dihydrobenzofuran-3-yl]ethyl]boronic acid]

The next lines start with the compound.

Row | SMILES | Selectivity LMP7 vs Beta5 [1] | pIC50 [1] | pIC50 [2]
14 | O=C(Cc1cnccn1)N[C@@H](Cc1coc2ccccc12)B(O)O [Compound No. 18, [(1R)-2-(benzofuran-3-yl)-1-[(2-pyrazin-2-ylacetyl)amino]ethyl]boronic acid] | ++ (10 ≤ Selectivity < 50) | > 7.30 | 6.30 to 7.30
15 | COc1ccc(CC(=O)N[C@@H](Cc2coc3ccccc23)B(O)O)c(OC)c1OC [Compound No. 60, [(1R)-2-(benzofuran-3-yl)-1-[[2-(2,3,4-trimethoxyphenyl)acetyl]amino]-ethyl]boronic acid] | ++++ (70 ≤ Selectivity < 100) | > 7.30 | 6.30 to 7.30
16 | CC(=O)Nc1ccc(CC(=O)N[C@@H](Cc2coc3ccccc23)B(O)O)cc1 [Compound No. 26, [(1R)-1-[[2-(4-acetamidophenyl)acetyl]amino]-2-(benzofuran-3-yl)ethyl]boronic acid] | +++++ (Selectivity ≥ 100) | – | 6.30 to 7.30
17 | COc1ccc(OC)c(CC(=O)N[C@@H](Cc2coc3ccccc23)B(O)O)c1 [Compound No. 58, [(1R)-2-(benzofuran-3-yl)-1-[[2-(2,5-dimethoxyphenyl)acetyl]amino]-ethyl]boronic acid] | ++++ (70 ≤ Selectivity < 100) | > 7.30 | 6.30 to 7.30
18 | O=C(Cc1ccccc1OC(F)(F)F)N[C@@H](Cc1coc2ccccc12)B(O)O [Compound No. 28, [(1R)-2-(benzofuran-3-yl)-1-[[2-[2-(trifluoromethoxy)phenyl]acetyl]-amino]ethyl]boronic acid] | +++++ (Selectivity ≥ 100) | > 7.30 | 5.30 to 6.30
19 | Cc1ccc(C[C@H](NC(=O)Cc2ccc(N(C)C)cc2)B(O)O)c(C)c1 [Compound No. 44, [(1R)-1-[[2-(4-dimethylaminophenyl)acetyl]amino]-2-(2,4-dimethylphenyl)ethyl]boronic acid] | +++++ (Selectivity ≥ 100) | > 7.30 | < 5.30
20 | O=C(Cc1ccc(-c2ccccc2)cc1)N[C@H](Cc1coc2ccccc12)B(O)O [Compound No. 69, [(1S)-2-(benzofuran-3-yl)-1-[[2-(4-phenylphenyl)acetyl]amino]ethyl]-boronic acid] | ++ (10 ≤ Selectivity < 50) | 6.30 to 7.30 | 5.30 to 6.30
21 | Cc1ccc(C[C@H](NC(=O)Cc2c(C)cccc2C)B(O)O)c(C)c1 [Compound No. 35, [(1R)-2-(2,4-dimethylphenyl)-1-[[2-(2,6-dimethylphenyl)acetyl]amino]-ethyl]boronic acid] | ++ (10 ≤ Selectivity < 50) | 6.30 to 7.30 | 5.30 to 6.30
22 | O=C(Cc1cccnc1)N[C@@H](Cc1coc2ccccc12)B(O)O [Compound No. 8, [(1R)-2-(benzofuran-3-yl)-1-[[2-(3-pyridyl)acetyl]amino]ethyl]boronic acid] | +++ (50 ≤ Selectivity < 70) | > 7.30 | 6.30 to 7.30
23 | Cc1ccc(C[C@H](NC(=O)[C@@H](O)c2ccccc2)B(O)O)cc1 [Compound No. 17, [(1R)-1-[[(2S)-2-hydroxy-2-phenyl-acetyl]amino]-2-(p-tolyl)ethyl]-boronic acid] | ++ (10 ≤ Selectivity < 50) | 6.30 to 7.30 | < 5.30
24 | Cc1ccc(C[C@H](NC(=O)[C@H](O)c2ccccc2)B(O)O)cc1 [Compound No. 16, [(1R)-1-[[(2R)-2-hydroxy-2-phenyl-acetyl]amino]-2-(p-tolyl)ethyl]-boronic acid] | ++ (10 ≤ Selectivity < 50) | 6.30 to 7.30 | 5.30 to 6.30
25 | Cc1cccc2c(C[C@H](NC(=O)[C@@H](CO)c3ccccc3)B(O)O)coc12 [Compound No. 83, [(1R)-1-[[(2R)-3-hydroxy-2-phenyl-propanoyl]amino]-2-(7-methylbenzofuran-3-yl)ethyl]boronic acid] | +++++ (Selectivity ≥ 100) | > 7.30 | 5.30 to 6.30
26 | O=C(N[C@H](Cc1coc2ccccc12)B(O)O)[C@H](CO)c1ccccc1 [Compound No. 56, [(1S)-2-(benzofuran-3-yl)-1-[[(2S)-3-hydroxy-2-phenyl-propanoyl]-amino]ethyl]boronic acid] | +++++ (Selectivity ≥ 100) | 6.30 to 7.30 | < 5.30
